Data from US20080167330A1, “Carbamoylsulphoximides as protein kinase inhibitors” (priority 2006, published 2008).

Tests used:
[1] = target: T1, CDK2/CycE (Homo sapiens, UniProt P24941); assay: CDK2/CycE kinase assay; assay type: biochemical; details: 0.5 μM ATP
T1 construct: GST; purchased ProQinase GmbH, Freiburg; host or cells: baculovirus-infected insect cells (Sf9)
Protocol: Recombinant CDK2- and CycE-GST fusion proteins, purified from baculovirus-infected insect cells (Sf9), were purchased from ProQinase GmbH, Freiburg. The histone IIIS used as kinase substrate was purchased from Sigma. CDK2/CycE (1.25 ng/μL) was incubated in the presence of various concentrations of test substances (0 μM, and within the range 0.01-100 μM) in 40 μL of assay buffer [50 mM Tris/HCl pH 8.0, 10 mM MgCl2, 0.1 mM Na ortho-vanadate, 1.0 mM dithiothreitol, 0.5 μM ATP, 0.2% PEG20000, 10 μM histone IIIS, 0.2 μCi/measurement point ^33P-gamma ATP, 0.05% NP40, 1.25% dimethyl sulphoxide] at 22° C. for 10 min. The reaction was stopped by adding EDTA solution (250 mM, pH 8.0, 15 μl/measurement point).
15 μl of each reaction mixture were loaded onto P30 filter strips (from Wallac), and non-incorporated ^33P-ATP was removed by washing the filter strips three times in 0.5% strength phosphoric acid for 10 min each time.
After the filter strips had been dried at 70° C. for 1 hour, the filter strips were covered with scintillator strips (MeltiLex™ A, from Wallac) and baked at 90° C. for 1 hour. The amount of incorporated ^33P (substrate phosphorylation) was determined by scintillation measurement in a gamma radiation counter (Wallac).
The measured data were normalized to 0% inhibition (enzyme reaction without inhibitor) and 100% inhibition (all assay components except enzyme). The IC50 values were determined by means of a 4-parameter fit using the company's own software.

[2] = test system: human MCF7 breast tumour cells; assay: MCF7 proliferation assay; assay type: cell-based; details: MCF7, 96 h, 4 days incubation, crystal violet staining
Protocol: Cultivated human MCF7 breast tumour cells (ATCC HTB-22) were plated out in a density of 5000 cells/measurement point in 200 μl of growth medium (RPMI1640, 10% foetal calf serum, 2 mU/mL insulin, 0.1 nM oestradiol) in a 96-well multititre plate. After 24 hours, the cells from a plate (zero plate) were stained with crystal violet (see below), while the medium in the other plates was replaced by fresh culture medium (200 μl) to which the test substances had been added in various concentrations (0 μM, and in the range 0.01-30 μM; the final concentration of the solvent dimethyl sulphoxide was 0.5%). The cells were incubated in the presence of the test substances for 4 days. The cell proliferation was determined by staining the cells with crystal violet: the cells were fixed by adding 20 μl/measurement point of an 11% strength glutaraldehyde solution at room temperature for 15 min. After the fixed cells had been washed three times with water, the plates were dried at room temperature. The cells were stained by adding 100 μl/measurement point of a 0.1% strength crystal violet solution (pH adjusted to pH 3 by adding acetic acid). After the stained cells had been washed three times with water, the plates were dried at room temperature. The dye was dissolved by adding 100 μl/measurement point of a 10% strength acetic acid solution, and the extinction was determined by photometry at a wavelength of 595 nm. The percentage change in cell growth was calculated by normalizing the measurements to the extinctions of the zero point plate (=0%) and the extinction of the untreated (0 μM) cells (=100%). The IC50 values were determined by means of a 4-parameter fit using the company's own software.

[3] = test system: Aurora C, CDK1/CycB, CDK2/CycE, KDR (VEGFR2); assay: various kinase assays taken together (selectivity profile); assay type: biochemical; details: comparison across the kinase assays, in words
Protocol: The compounds of Examples 1 to 22 were tested for their inhibitory effect in the various kinase assays and in a proliferation assay with MCF7 human breast tumour cells (Tab. 1). […] Exemplary compounds 1-8, 10-12, 15, 17-20 inhibit the proliferation of human MCF7 breast tumour cells with half-maximum concentrations in the submicromolar range.

Structure (SMILES)	IC50 [1] [nM]	IC50 [2] [nM]	selectivity profile [3]
C[C@@H](Nc1nc(Nc2ccc(NC(=O)N=S(C)(C)=O)cc2)ncc1Br)C(C)(C)O [Example 2, N-({4-[(5-Bromo-4-{[(R)-2-hydroxy-1,2-dimethylpropyl]amino}pyrimidin-2-yl)-amino]phenyl}carbamoyl)-S,S-dimethylsulphoximide]	10	500	
C[C@@H](Nc1nc(Nc2ccc(C(=O)N=S(C)(C)=O)cc2)ncc1Br)C(C)(C)O [Example 19, N-{4-[(5-Bromo-4-{[(R)-2-hydroxy-1,2-dimethylpropyl]amino}pyrimidin-2-yl)amino]benzoyl}S,S-dimethylsulphoximide]	11	250	
Cc1ccc(Nc2ncc(Br)c(N[C@H](C)[C@@H](C)O)n2)cc1NC(=O)N=S(C)(C)=O [Example 8, N-({5-[(5-Bromo-4-{[(1R,2R)-2-hydroxy-1-methylpropyl]amino}pyrimidin-2-yl)amino]-2-methylphenyl}carbamoyl)-S,S-dimethylsulphoximide]	12	700	
COc1ccc(Nc2ncc(Br)c(N[C@H](C)[C@@H](C)O)n2)cc1NC(=O)N=S(C)(C)=O [Example 10, N-({5-[(5-Bromo-4-{[(1R,2R)-2-hydroxy-1-methylpropyl]amino}pyrimidin-2-yl)amino]-2-methoxyphenyl}carbamoyl)-S,S-dimethylsulphoximide]	20	650	
CS(C)(=O)=NC(=O)Nc1ccc(Nc2ncc(Br)c(Nc3ccc4[nH]cnc4c3)n2)cc1 [Example 16, N-[(4-{[4-(1H-Benzimidazol-5-ylamino)-5-bromopyrimidin-2-yl]amino}phenyl)-carbamoyl]-S,S-dimethylsulphoximide]	330	2100	preferential KDR inhibition
C[C@@H](O)[C@@H](C)Oc1nc(Nc2ccc(C(=O)N=S(C)(C)=O)cc2)ncc1Br [Example 20, N-{4-[(5-Bromo-4-{[(1R,2R)-2-hydroxy-1-methylpropyl]oxy}pyrimidin-2-yl)amino]benzoyl}-S,S-dimethylsulphoximide]	12	310	
COc1cc(Nc2ncc(Br)c(N[C@H](C)[C@@H](C)O)n2)ccc1NC(=O)N=S(C)(C)=O [Example 11, N-({4-[(5-Bromo-4{[(1R,2R)-2-hydroxy-1-methylpropyl]amino}pyrimidin-2-yl)amino]-2-methoxyphenyl}carbamoyl)-S,S-dimethylsulphoximide]	19	990	

These reach a lower IC50 [1]. Values come first.

IC50 [1] [nM]	IC50 [2] [nM]	selectivity profile [3]	Structure (SMILES)
9	140		C[C@@H](O)[C@@H](C)Nc1nc(Nc2ccc(C(=O)N=S(C)(C)=O)cc2)ncc1Br [Example 18, N-{4-[(5-Bromo-4-{[(1R,2R)-2-hydroxy-1-methylpropyl]amino}pyrimidin-2-yl)amino]benzoyl}-S,S-dimethylsulphoximide]
9	530	CDK-selective	C[C@@H](O)[C@@H](C)Nc1nc(Nc2ccc(NC(=O)N=S(C)(C)=O)cc2)ncc1C(F)(F)F [Example 15]
9	860		C[C@@H](O)[C@@H](C)Nc1nc(Nc2ccc(Cl)c(NC(=O)N=S(C)(C)=O)c2)ncc1Br [Example 12, N-({5-[(5-Bromo-4-{[(1R,2R)-2-hydroxy-1-methylpropyl]amino}pyrimidin-2-yl)amino]-2-chlorophenyl}carbamoyl)-S,S-dimethylsulphoximide]
9	400		C[C@@H](Nc1nc(Nc2cccc(NC(=O)N=S(C)(C)=O)c2)ncc1Br)C(C)(C)O [Example 1, N-({3-[(5-Bromo-4-{[(R)-2-hydroxy-1,2-dimethylpropyl]amino}pyrimidin-2-yl)amino]phenyl}carbamoyl)-S,S-dimethylsulphoximide]
9	380	CDK-selective	C[C@@H](O)[C@@H](C)Nc1nc(Nc2cccc(C(=O)N=S(C)(C)=O)c2)ncc1Br [Example 17, N-{3-[(5-Bromo-4-{[(1R,2R)-2-hydroxy-1-methylpropyl]amino}pyrimidin-2-yl)amino]benzoyl}-S,S-dimethylsulphoximide]
7	150		C[C@@H](O)[C@@H](C)Oc1nc(Nc2cccc(NC(=O)N=S(C)(C)=O)c2)ncc1Br [Example 6, N-({3-[(5-Bromo-4-{[(1R,2R)-2-hydroxy-1-methylpropyl]oxy}pyrimidin-2-yl)amino]phenyl}carbamoyl)-S,S-dimethylsulphoximide]
5	140		C[C@@H](O)[C@@H](C)Oc1nc(Nc2ccc(NC(=O)N=S(C)(C)=O)cc2)ncc1Br [Example 4, N-({4-[(5-Bromo-4-{[(1R,2R)-2-hydroxy-1-methylpropyl]oxy}pyrimidin-2-yl)amino]phenyl}carbamoyl)-S,S-dimethylsulphoximide]
5	160		C[C@@H](O)[C@@H](C)Nc1nc(Nc2cccc(NC(=O)N=S(C)(C)=O)c2)ncc1Br [Example 5, N-({3-[(5-Bromo-4-{[(1R,2R)-2-hydroxy-1-methylpropyl]amino}pyrimidin-2-yl)amino]phenyl}carbamoyl)-S,S-dimethylsulphoximide]
5	160		C[C@@H](O)[C@@H](C)Nc1nc(Nc2ccc(NC(=O)N=S(C)(C)=O)cc2)ncc1Br [Example 3, N-({4-[(5-Bromo-4-{[(1R,2R)-2-hydroxy-1-methylpropyl]amino}pyrimidin-2-yl)amino]phenyl}carbamoyl)-S,S-dimethylsulphoximide]
3	500		C[C@@H](O)[C@@H](C)Nc1nc(Nc2ccc(F)c(NC(=O)N=S(C)(C)=O)c2)ncc1Br [Example 7, N-({5-[(5-Bromo-4-{[(1R,2R)-2-hydroxy-1-methylpropyl]amino}pyrimidin-2-yl)amino]-2-fluorophenyl}carbamoyl)-S,S-dimethylsulphoximide]
